# Like-named read-outs stand apart in the source and are kept apart here.
# Experiments:
# CYP3A = conditions: read-out: IC50 or Ki values determined previously; CYP3A inhibitors in grapefruit juice; cited from earlier work
# [1] = target: recombinant CYP3A4 (rCYP3A4) (Homo sapiens, UniProt P08684); assay: IC50 of triterpenes for midazolam 1′-hydroxylation using recombinant CYP3A4
# CYP3A (intestinal) [2] = target: T1, CYP3A (intestinal) (Homo sapiens, UniProt P08684); assay: in vitro; conditions: microsomes, pH 7.4, IC50, HIM as the enzyme source
# CYP3A (intestinal) [3] = target: T1, CYP3A (intestinal); conditions: microsomes, pH 7.4
IC50 (CYP3A (intestinal) [2]) [µM],Structure (SMILES),IC50 (CYP3A) [µM],IC50 [1] [µM],IC50 (CYP3A (intestinal) [3]) [µM]
,"CC(=CCOc1c2ccoc2cc2oc(=O)ccc12)CCC(O)C(C)(C)O (centres unmarked) [6′,7′-dihydroxybergamottin]",1 to 5,,
8.8 ± 0.9,"C[C@H]1[C@H](C)CC[C@]2(C(=O)O)CC[C@]3(C)C(=CC[C@@H]4[C@@]5(C)C[C@@H](O)[C@H](O)C(C)(C)[C@@H]5CC[C@]43C)[C@H]12 [Corosolic acid (3), 2α,3β-dihydroxyurs-12-en-28-oic acid]",,4.3 ± 0.3,
,"CC1(C)CC[C@]2(C(=O)O)CC[C@]3(C)C(=CC[C@@H]4[C@@]5(C)C[C@@H](O)[C@H](O)C(C)(C)[C@@H]5CC[C@]43C)[C@@H]2C1 [Maslinic acid (2), 2α,3β-dihydroxyolean-12-en-28-oic acid]",,2.8 ± 0.2,7.4 ± 0.5
